Experiments:
Substance-P receptor = Substance-P receptor (Homo sapiens, UniProt P25103); format: cell membranes, Membrane; settings: cho; further: in other assays of this panel Not Active means under 50% inhibition at 10 µM
[1] = DRUGMATRIX: Glutamate, NMDA, Phencyclidine radioligand binding (ligand: [3H] TCP); format: cell membranes, Rattus norvegicus, Wistar, Cerebral cortex, Membrane; settings: Not Active = under 50% inhibition at 10 µM
[2] = biological target: Sodium-dependent noradrenaline transporter (Homo sapiens, UniProt P23975); experiment: DRUGMATRIX: Norepinephrine Transporter radioligand binding (ligand: [125I] RTI-55); format: cell membranes, MDCK, Membrane; settings: Not Active = under 50% inhibition at 10 µM
[3] = biological target: T1, Neuropeptide Y receptor type 2 (Homo sapiens, UniProt P49146); format: cell membranes, Membrane; settings: kan-ts; further: in other assays of this panel Not Active means under 50% inhibition at 10 µM
T1 sequence (P49146 whole entry): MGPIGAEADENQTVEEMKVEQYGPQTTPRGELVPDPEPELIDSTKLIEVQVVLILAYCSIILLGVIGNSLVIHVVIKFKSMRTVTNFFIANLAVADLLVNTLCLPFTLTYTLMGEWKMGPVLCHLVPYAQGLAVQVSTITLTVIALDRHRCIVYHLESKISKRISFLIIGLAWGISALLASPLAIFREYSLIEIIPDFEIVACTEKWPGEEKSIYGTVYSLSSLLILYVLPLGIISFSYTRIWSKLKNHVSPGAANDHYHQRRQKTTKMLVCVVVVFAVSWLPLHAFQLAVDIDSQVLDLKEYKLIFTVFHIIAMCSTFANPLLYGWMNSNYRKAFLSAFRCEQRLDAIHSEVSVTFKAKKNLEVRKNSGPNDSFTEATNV

[4] = biological target: Voltage-gated inwardly rectifying potassium channel KCNH2 (Homo sapiens, UniProt Q12809); settings: hek293; further: in other assays of this panel Not Active means under 50% inhibition at 10 µM
Endothelin-1 receptor = biological target: T2, Endothelin-1 receptor (Homo sapiens, UniProt P25101); format: cell membranes, Membrane; settings: cho-k1; further: in other assays of this panel Not Active means under 50% inhibition at 10 µM
T2 sequence (P25101 whole entry): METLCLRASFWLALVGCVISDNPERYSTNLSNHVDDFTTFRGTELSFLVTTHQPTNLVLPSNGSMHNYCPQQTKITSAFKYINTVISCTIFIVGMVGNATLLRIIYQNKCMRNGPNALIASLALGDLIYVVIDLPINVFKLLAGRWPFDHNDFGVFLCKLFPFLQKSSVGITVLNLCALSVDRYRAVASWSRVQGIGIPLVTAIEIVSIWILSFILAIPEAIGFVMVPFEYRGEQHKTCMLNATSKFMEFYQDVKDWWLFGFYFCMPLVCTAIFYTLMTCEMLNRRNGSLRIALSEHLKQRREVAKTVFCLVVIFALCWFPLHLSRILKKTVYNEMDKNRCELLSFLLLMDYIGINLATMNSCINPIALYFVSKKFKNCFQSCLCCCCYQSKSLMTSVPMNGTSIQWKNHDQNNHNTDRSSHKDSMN

Cytochrome P450 3A4 = Cytochrome P450 3A4 (Homo sapiens, UniProt P08684); settings: bti-tn-5b1-4; further: in other assays of this panel Not Active means under 50% inhibition at 10 µM
Melanocortin receptor 5 = Melanocortin receptor 5 (Homo sapiens, UniProt P33032); format: cell membranes, HEK293, Membrane; settings: hek293; further: in other assays of this panel Not Active means under 50% inhibition at 10 µM
Sequence of Melanocortin receptor 5 (P33032 whole entry): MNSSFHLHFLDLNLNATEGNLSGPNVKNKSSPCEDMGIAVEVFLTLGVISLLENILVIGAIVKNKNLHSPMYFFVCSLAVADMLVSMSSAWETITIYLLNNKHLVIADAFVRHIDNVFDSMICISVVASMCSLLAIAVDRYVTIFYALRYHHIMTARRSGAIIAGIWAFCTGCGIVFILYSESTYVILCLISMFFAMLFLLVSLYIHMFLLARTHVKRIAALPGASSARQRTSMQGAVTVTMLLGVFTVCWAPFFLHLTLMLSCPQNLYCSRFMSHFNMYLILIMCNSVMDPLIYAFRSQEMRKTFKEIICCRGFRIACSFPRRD

Sequence of Sodium-dependent noradrenaline transporter (P23975 whole entry): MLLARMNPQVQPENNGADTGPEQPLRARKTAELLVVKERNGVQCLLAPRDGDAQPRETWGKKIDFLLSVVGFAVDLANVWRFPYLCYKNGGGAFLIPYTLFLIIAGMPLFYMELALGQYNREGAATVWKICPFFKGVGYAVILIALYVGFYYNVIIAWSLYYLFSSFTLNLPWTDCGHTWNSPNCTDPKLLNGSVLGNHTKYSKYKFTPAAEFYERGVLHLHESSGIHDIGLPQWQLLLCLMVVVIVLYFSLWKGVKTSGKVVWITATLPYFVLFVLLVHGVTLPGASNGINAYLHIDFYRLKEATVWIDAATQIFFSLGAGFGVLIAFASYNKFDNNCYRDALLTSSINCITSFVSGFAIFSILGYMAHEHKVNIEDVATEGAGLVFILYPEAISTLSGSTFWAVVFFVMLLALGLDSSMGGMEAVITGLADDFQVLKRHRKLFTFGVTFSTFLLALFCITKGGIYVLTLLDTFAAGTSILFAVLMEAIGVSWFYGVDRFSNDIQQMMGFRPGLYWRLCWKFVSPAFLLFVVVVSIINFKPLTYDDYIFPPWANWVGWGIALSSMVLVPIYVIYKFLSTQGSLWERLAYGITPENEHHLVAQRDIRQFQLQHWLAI
Sequence of Cytochrome P450 3A4 (P08684 whole entry): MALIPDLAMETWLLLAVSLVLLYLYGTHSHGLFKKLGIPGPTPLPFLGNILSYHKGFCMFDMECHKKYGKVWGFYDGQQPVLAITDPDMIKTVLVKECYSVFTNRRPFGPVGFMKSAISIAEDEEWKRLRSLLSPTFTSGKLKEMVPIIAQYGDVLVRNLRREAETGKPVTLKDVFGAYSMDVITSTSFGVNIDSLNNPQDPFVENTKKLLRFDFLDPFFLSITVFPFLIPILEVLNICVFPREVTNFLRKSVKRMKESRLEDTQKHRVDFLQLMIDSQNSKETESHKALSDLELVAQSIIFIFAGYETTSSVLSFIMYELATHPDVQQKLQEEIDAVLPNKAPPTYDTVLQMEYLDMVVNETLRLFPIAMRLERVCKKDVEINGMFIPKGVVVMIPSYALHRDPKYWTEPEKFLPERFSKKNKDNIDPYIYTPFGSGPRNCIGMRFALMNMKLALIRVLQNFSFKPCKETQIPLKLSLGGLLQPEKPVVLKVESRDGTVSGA
Sequence of Substance-P receptor (P25103 whole entry): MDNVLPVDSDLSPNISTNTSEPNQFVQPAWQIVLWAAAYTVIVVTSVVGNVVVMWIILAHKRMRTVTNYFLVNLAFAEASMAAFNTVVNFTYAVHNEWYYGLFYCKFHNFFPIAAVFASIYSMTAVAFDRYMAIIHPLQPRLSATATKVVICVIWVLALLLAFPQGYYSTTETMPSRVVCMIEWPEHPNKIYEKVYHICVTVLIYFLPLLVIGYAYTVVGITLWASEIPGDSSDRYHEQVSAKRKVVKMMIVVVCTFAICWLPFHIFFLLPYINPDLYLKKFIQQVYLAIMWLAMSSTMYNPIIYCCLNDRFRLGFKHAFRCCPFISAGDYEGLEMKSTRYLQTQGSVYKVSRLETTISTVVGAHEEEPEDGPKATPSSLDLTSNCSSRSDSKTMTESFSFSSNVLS
Sequence of Voltage-gated inwardly rectifying potassium channel KCNH2 (Q12809 whole entry): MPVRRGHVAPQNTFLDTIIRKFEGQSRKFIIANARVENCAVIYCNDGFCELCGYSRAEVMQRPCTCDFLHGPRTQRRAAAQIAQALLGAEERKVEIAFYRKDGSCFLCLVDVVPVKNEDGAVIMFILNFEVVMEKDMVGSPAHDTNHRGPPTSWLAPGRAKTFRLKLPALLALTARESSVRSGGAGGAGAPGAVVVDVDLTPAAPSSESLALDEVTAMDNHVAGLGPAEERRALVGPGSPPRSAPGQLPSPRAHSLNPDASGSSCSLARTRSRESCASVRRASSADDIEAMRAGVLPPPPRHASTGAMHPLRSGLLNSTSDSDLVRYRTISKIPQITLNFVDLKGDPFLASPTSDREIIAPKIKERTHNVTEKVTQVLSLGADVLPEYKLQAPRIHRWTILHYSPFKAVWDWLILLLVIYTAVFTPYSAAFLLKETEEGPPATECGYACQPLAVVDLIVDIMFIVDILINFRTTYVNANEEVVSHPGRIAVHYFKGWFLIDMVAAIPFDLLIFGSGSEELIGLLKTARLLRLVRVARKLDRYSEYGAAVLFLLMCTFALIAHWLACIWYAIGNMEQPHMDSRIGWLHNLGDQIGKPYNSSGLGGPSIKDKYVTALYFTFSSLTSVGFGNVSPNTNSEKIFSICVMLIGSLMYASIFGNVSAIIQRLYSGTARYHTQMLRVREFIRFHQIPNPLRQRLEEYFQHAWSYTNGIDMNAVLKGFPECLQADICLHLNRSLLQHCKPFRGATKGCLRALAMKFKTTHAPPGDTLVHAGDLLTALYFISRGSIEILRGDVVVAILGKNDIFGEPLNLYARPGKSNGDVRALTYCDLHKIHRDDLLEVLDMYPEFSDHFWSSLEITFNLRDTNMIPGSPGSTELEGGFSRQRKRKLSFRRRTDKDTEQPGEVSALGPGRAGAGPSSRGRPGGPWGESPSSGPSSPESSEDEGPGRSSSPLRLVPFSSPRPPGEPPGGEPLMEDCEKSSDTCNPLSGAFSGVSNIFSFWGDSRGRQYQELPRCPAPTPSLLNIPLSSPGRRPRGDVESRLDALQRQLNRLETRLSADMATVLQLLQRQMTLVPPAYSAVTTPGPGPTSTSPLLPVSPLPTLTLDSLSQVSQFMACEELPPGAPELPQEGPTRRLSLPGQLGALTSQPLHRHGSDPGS

SMILES | IC50 (Substance-P receptor) | IC50 [1] | Ki [1] | IC50 ([2]; mdck) | IC50 [3] | IC50 [4] | Ki [4] | IC50 (Endothelin-1 receptor) | IC50 (Cytochrome P450 3A4) | Ki (Cytochrome P450 3A4) | IC50 (Melanocortin receptor 5) | IC50 ([2]; read-out: IC50) [nM] | Ki ([2]; read-out: Ki) [nM]
Oc1ccccc1 [PHENOL] | Not Active | Not Active | Not Active | Not Active | Not Active | Not Active | Not Active | Not Active | Not Active | Not Active | Not Active | – | –
Oc1ncnc2[nH]ncc12 [ALLOPURINOL] | Not Active | Not Active | Not Active | Not Active | Not Active | Not Active | Not Active | Not Active | Not Active | Not Active | Not Active | – | –
COC(=O)Nc1nc2ccc(Sc3ccccc3)cc2[nH]1 [FENBENDAZOLE] | Not Active | Not Active | Not Active | Not Active | Not Active | Not Active | Not Active | Not Active | Not Active | Not Active | Not Active | – | –
C[C@@H]1[C@H](O)[C@@H](C)/C=C/C=C/C=C/C=C/C=C/C=C/C=C/[C@H](O[C@@H]2O[C@H](C)[C@@H](O)[C@H](N)[C@@H]2O)C[C@@H]2O[C@](O)(C[C@@H](O)C[C@@H](O)[C@H](O)CC[C@@H](O)C[C@@H](O)CC(=O)O[C@H]1C)C[C@H](O)[C@H]2C(=O)O [AMPHOTERICIN B] | Not Active | Not Active | Not Active | Not Active | Not Active | Not Active | Not Active | Not Active | Not Active | Not Active | Not Active | – | –
CCO [ALCOHOL] | Not Active | Not Active | Not Active | Not Active | Not Active | Not Active | Not Active | Not Active | Not Active | Not Active | Not Active | – | –
COc1cc(/C=C/C(=O)O)ccc1O [FERULATE] | Not Active | Not Active | Not Active | Not Active | Not Active | Not Active | Not Active | Not Active | Not Active | Not Active | Not Active | – | –
CNC[C@H](O)c1ccc(O)c(O)c1 [EPINEPHRINE] | Not Active | Not Active | Not Active | Not Active | Not Active | Not Active | Not Active | Not Active | Not Active | Not Active | Not Active | – | –
NC(N)=Nc1nc(CSCCC(N)=NS(N)(=O)=O)cs1 [FAMOTIDINE] | Not Active | Not Active | Not Active | Not Active | Not Active | – | – | Not Active | Not Active | Not Active | Not Active | – | –
C#C[C@]1(O)CC[C@H]2[C@@H]3CCC4=CC(=O)CC[C@@H]4[C@H]3CC[C@@]21C [NORETHINDRONE] | Not Active | Not Active | Not Active | Not Active | Not Active | Not Active | Not Active | Not Active | – | – | Not Active | – | –
CC(C)(C#N)c1cc(Cn2cncn2)cc(C(C)(C)C#N)c1 [ANASTROZOLE] | Not Active | Not Active | Not Active | Not Active | Not Active | Not Active | Not Active | Not Active | – | – | Not Active | – | –
COc1ccc(Cl)cc1C(=O)NCCc1ccc(S(=O)(=O)NC(=O)NC2CCCCC2)cc1 [GLYBURIDE] | Not Active | Not Active | Not Active | Not Active | Not Active | – | – | Not Active | – | – | Not Active | – | –
CCN1CCN(C(=O)N[C@@H](C(=O)N[C@@H]2C(=O)N3[C@@H]2SC(C)(C)[C@@H]3C(=O)O)c2ccccc2)C(=O)C1=O [PIPERACILLIN] | Not Active | Not Active | Not Active | Not Active | Not Active | – | – | Not Active | Not Active | Not Active | Not Active | – | –
CC[C@H]1OC(=O)[C@H](C)[C@@H](O[C@H]2C[C@@](C)(OC)[C@@H](O)[C@H](C)O2)[C@H](C)[C@@H](O[C@@H]2O[C@H](C)C[C@H](N(C)C)[C@H]2O)[C@](C)(O)C[C@@H](C)C(=O)[C@H](C)[C@@H](O)[C@]1(C)O [ERYTHROMYCIN] | Not Active | Not Active | Not Active | Not Active | Not Active | – | – | Not Active | Not Active | Not Active | Not Active | – | –
O=C(O)CNCP(=O)(O)O [GLYPHOSATE] | Not Active | Not Active | Not Active | Not Active | Not Active | Not Active | Not Active | Not Active | – | – | Not Active | – | –
NS(=O)(=O)c1cc(C(=O)O)c(NCc2ccco2)cc1Cl [FUROSEMIDE] | Not Active | Not Active | Not Active | Not Active | Not Active | – | – | Not Active | – | – | Not Active | – | –
CCN1C[C@]2(COC)[C@H](O)C[C@H](OC)[C@@]34[C@@H]5C[C@@]6(O)[C@H](OC(=O)c7ccccc7)[C@@H]5[C@@](OC(C)=O)([C@@H]([C@H](OC)[C@H]23)[C@@H]14)[C@@H](O)[C@@H]6OC [ACONITINE] | Not Active | Not Active | Not Active | Not Active | Not Active | – | – | Not Active | Not Active | Not Active | Not Active | – | –
COc1ccccc1OCCNCC(O)COc1cccc2[nH]c3ccccc3c12 (stereo not drawn) [CARVEDILOL] | Not Active | Not Active | Not Active | – | Not Active | – | – | Not Active | Not Active | Not Active | Not Active | 538 | 533
CCN(CCO)CCCC(C)Nc1ccnc2cc(Cl)ccc12 (stereo not drawn) [HYDROXYCHLOROQUINE] | Not Active | Not Active | Not Active | Not Active | Not Active | Not Active | Not Active | Not Active | – | – | Not Active | – | –
COc1cc([C@@H]2c3cc4c(cc3[C@H](O)[C@H]3COC(=O)[C@H]23)OCO4)cc(OC)c1OC [PODOFILOX] | Not Active | Not Active | Not Active | Not Active | Not Active | Not Active | Not Active | Not Active | – | – | Not Active | – | –
C[C@H]1C[C@H]2[C@@H]3CCC4=CC(=O)C=C[C@]4(C)[C@@]3(F)[C@@H](O)C[C@]2(C)[C@@]1(O)C(=O)CO [BETAMETHASONE] | Not Active | Not Active | Not Active | Not Active | Not Active | Not Active | Not Active | Not Active | – | – | Not Active | – | –
CC(C)NCC(O)COc1ccc(CC(N)=O)cc1 (stereo not drawn) [ATENOLOL] | Not Active | Not Active | Not Active | Not Active | Not Active | – | – | Not Active | – | – | Not Active | – | –

Reference: ChEMBL document CHEMBL1909046, “DrugMatrix in vitro pharmacology data”
